The target in one test is BRD4 BD2 protein (Homo sapiens (Human), UniProt O60885). The experiment in a line: Fluorescence polarization binding affinity (Ki) with BRD4 BD2 protein. The conditions noted are these: fluorescence polarization; Ki calculated from IC50.
The next test has as its target BRD4 BD1 protein (Homo sapiens (Human), UniProt O60885). Briefly: Fluorescence polarization binding affinity (Ki) with BRD4 BD1 protein. The conditions noted are these: fluorescence polarization; Ki calculated from IC50.
For test [1], the system named is multiple myeloma MM.1S cell line. The experiment in a line: Cell viability (CCK-8), multiple myeloma MM.1S. Type of test: cell-based. The conditions noted are these: Homo sapiens, MM1.S, 96 h, MM.1S cells, 4 days, CCK-8, 50% inhibition of cell growth. The protocol: 3. Determination of cell viability of the compound
The sample to be tested was dissolved with 100% dimethyl sulfoxide to prepare a 20 mM stock solution of the compound, which was diluted with 100% dimethyl sulfoxide to the highest compound concentration required for the experiment (2.5 mM).
First, 145 uL of a complete cell culture medium was added to wells B1-G1 of a 96-well flat-bottomed tansparent cell culture plate, and 100 uL of the complete medium was added to wells B2-G12, respectively. Then, 5 uL of the 2.5 mM solution of the compound was added to wells B1-D1 and E1-G1 respectively, and then diluted gradiently by 3-folds to B12-D12 and E12-G12 in sequence. Finally, 50 uL of the solution of the cells to be tested was added to each well, with about 3000-5000 cells per well, and a total volume of 150 uL per well.
In the experiment, in addition to the tested compound, two other control groups were set up: 1) a control group adding the cells and the complete medium, but without adding the compound; 2) a control group adding the complete medium only, without adding the cells and the compound. The 96-well plate was placed in a 37° C. cell culture incubator containing 5% carbon dioxide for 4 days, added with 15 uL of a CCK-8 reagent per well, and then incubated at 37° C. for 2-4 hours. The 96-well plate was read on a TECAN microplate reader, and the absorbance value at 450 nm wavelength was taken.
The effect of different concentrations of the compound on cell viability was calculated by the following equation: [absorption value of the experimental group−absorption value of pure cell culture medium without the cells or the compound]/[absorption value of the control group with the tumor cells but no testing compound−absorption value of pure cell culture medium without the cell or the compound]×100%.
The above data were precessed by software, and the IC50 value was the concentration of the compound corresponding to the 50% inhibition rate of cell growth.
Based on the above test method of the compound on cell viability, a variety of […] cancer cell lines were tested, using multiple myeloma MM.1S, breast cancer MDA-MB-231 and leukemia MV4-11 cell lines as exemples. Using this test method, the IC50 values of partial compounds in the examples of the present invention measured in multiple myeloma MM.1S, breast cancer MDA-MB-231 cell lines and leukemia MV4-11 cell lines were shown in Table 2.

Several values for one entry are separate records, joined by “and”; a condition that tells them apart may be missing. Equal entries are not always repeated.

Usually Ki stands for a measure of affinity in units of concentration, obtained from inhibition or displacement. For orientation: IC50 means the point on the concentration scale where inhibition reaches its midpoint. For the compound `COc1ccc2c(c1)C(Nc1ccc(C)cc1)CCc1onc(C)c1-2` (stereo not shown) [BB188, 8-methoxy-1-methyl-N-(p-tolyl)-5,6-dihydro-4H-benzo[6,7]cyclohepta[1,2-d]isoxazol-6-amine], the results for the Ki on BRD4 BD2 protein and at BRD4 BD1 protein were 41.4 nM and 94.2 nM, respectively. Also, the concentration for half-maximal inhibition (IC50) in test [1] was determined as 805 nM.
Consider `COc1ccc2c(c1)C(Nc1ccc(F)cc1)CCc1onc(C)c1-2` (stereo not shown) [BB189, N-(4-fluorophenyl)-8-methoxy-1-methyl-5,6-dihydro-4H-benzo[6,7]cyclohepta[1,2-d]isoxazol-6-amine], for which the figures for the Ki on BRD4 BD2 protein and at BRD4 BD1 protein were 92.1 nM and 172 nM, respectively. In test [1], this compound yielded an IC50 of 230 nM.
Turning to `CCc1nnn2c1-c1ccc(-c3cnn(C)c3)cc1C(Nc1ccc(Cl)cc1)CC2` (stereo not shown) [BE02, N-(4-chlorophenyl)-1-ethyl-9-(1-methyl-1H-pyrazol-4-yl)-6,7-dihydro-5H-benzo[c][1,2,3]triazolo[1,5-a]azepin-7-amine], the results for the Ki at BRD4 BD2 protein and on BRD4 BD1 protein were 42.8 nM and 128 nM, respectively. The compound further registered an IC50 in test [1] of 138 nM.
With `Cc1nnn2c1-c1ccc(-c3cnn(C)c3)cc1C(Nc1ccc(Cl)cc1)CC2C` (stereo not shown) [BE25, N-(4-chlorophenyl)-1,5-dimethyl-9-(1-methyl-1H-pyrazol-4-yl)-6,7-dihydro-5H-benzo[c][1,2,3]triazolo[1,5-a]azepin-7-amine], the figures for the inhibitory constant (Ki) on BRD4 BD2 protein and on BRD4 BD1 protein were 9.4 nM and 20.8 nM, respectively. In test [1], this compound displayed an IC50 of 3.47 nM.
Take `Cn1cc(-c2ccc3c(c2)C(Nc2ccc(Cl)cc2)CCn2nnc(C4CC4)c2-3)cn1` (stereo not shown) [BE44, N-(4-chlorophenyl)-1-cyclopropyl-9-(1-methyl-1H-pyrazol-4-yl)-6,7-dihydro-5H-benzo[c][1,2,3]triazolo[1,5-a]azepin-7-amine]: the results for the Ki on BRD4 BD2 protein and on BRD4 BD1 protein were 48.1 nM and 173 nM, respectively. Also, half-maximal inhibition in test [1] (IC50) required 989 nM.
As to `Cc1nnn2c1-c1ccc(-c3cnn(C)c3)cc1C(Oc1ccc(F)cc1F)CC2` (stereo not shown) [BE95, 7-(2,4-difluorophenoxy)-1-methyl-9-(1-methyl-1H-pyrazol-4-yl)-6,7-dihydro-5H-benzo[c][1,2,3]triazolo[1,5-a]azepine], the Ki on BRD4 BD2 protein was 86.9 nM; at BRD4 BD1 protein, 577 nM. Moreover, in test [1], inhibition was half-maximal at 3190 nM (IC50).
Take `Cc1cc(NC2CCn3nnc(C)c3-c3ccc(-c4cnn(C)c4)cc32)n(C)n1` (stereo not shown) [BE114, N-(1,3-dimethyl-1H-pyrazol-5-yl)-1-methyl-9-(1-methyl-1H-pyrazol-4-yl)-6,7-dihydro-5H-benzo[c][1,2, 3]triazolo[1,5-a]azepin-7-amine]: the inhibition constant Ki is 7 nM at BRD4 BD2 protein and 45.4 nM at BRD4 BD1 protein. Besides, it took 775 nM to reach half-maximal inhibition in test [1] (IC50).
`Cc1nnn2c1-c1ccc(-c3cnn(C)c3)cc1C(Nc1ccnn1C)CC2` (stereo not shown) [BE118, 1-methyl-9-(1-methyl-1H-pyrazol-4-yl)-N-(1-methyl-1H-pyrazol-5-yl)-6,7-dihydro-5H-benzo[c][1,2,3] triazolo[1,5-a]azepin-7-amine]: the inhibition constant (Ki) at BRD4 BD2 protein was 23.6 nM; on BRD4 BD1 protein, 272 nM. Further, 604 nM corresponded to half-maximal inhibition in test [1] (IC50).
For `Cc1nnn2c1-c1ccc(-c3cnn(C)c3)cc1C(Oc1ccc(Cl)cc1)CC2` (stereo not shown) [BE128, 7-(4-chlorophenoxy)-1-methyl-9-(1-methyl-1H-pyrazol-4-yl)-6,7-dihydro-5H-benzo[c][1,2,3]triazolo[1,5-a]azepine], in that order: 17.1 nM, 176 nM and 689 nM.
Consider `Cc1nnn2c1-c1ccc(-c3cnn(C)c3)cc1C(Nc1cc(C3CC3)nn1C)CC2` (stereo not shown) [BE130, N-(3-cyclopropyl-1-methyl-1H-pyrazol-5-yl)-1-methyl-9-(1-methyl-1H-pyrazol-4-yl)-6,7-dihydro-5H-benzo[c][1,2,3]triazolo[1,5-a]azepin-7-amine], for which the Ki was 29.9 nM on BRD4 BD2 protein and 139 nM at BRD4 BD1 protein. Besides, half-maximal inhibition in test [1] (IC50) required 171 nM.
For the compound `CC(=O)N1CC=C(c2ccc3c(c2)C(Nc2cccc(Cl)c2)CCn2nnc(C)c2-3)CC1` (stereo not shown) [BH29, 1-(4-(7-((3-chlorophenyl)amino)-1-methyl-6,7-dihydro-5H-benzo[c][1,2,3]triazolo[1,5-a]azepin-9-yl)-3,6-dihydropyridin-1(2H)-yl)ethan-1-one], the Ki at BRD4 BD2 protein was 1.26 nM; at BRD4 BD1 protein, 39.5 nM. Further, in test [1], it took 1 nM to reach half-maximal inhibition (IC50).
For `Cc1nnn2c1-c1ccc(C3=CCN(C(C)C)CC3)cc1C(Nc1cccc(Cl)c1)CC2` (stereo not shown) [BH32, N-(3-chlorophenyl)-9-(1-isopropyl-1,2,3,6-tetrahydropyridin-4-yl)-1-methyl-6,7-dihydro-5H-benzo[c][1,2,3]triazolo[1,5-a]azepin-7-amine 2,2,2-trifluoroacetate], the Ki was 9.75 nM on BRD4 BD2 protein and 525 nM at BRD4 BD1 protein. In test [1], this compound registered a half-inhibitory concentration (IC50) of 119 nM.
`CCN1CC=C(c2ccc3c(c2)C(Nc2cccc(OC)c2)CCn2nnc(C)c2-3)CC1` (stereo not shown) [BH33, 9-(1-ethyl-1,2,3,6-tetrahydropyridin-4-yl)-N-(3-methoxyphenyl)-1-methyl-6,7-dihydro-5H-benzo[c][1,2,3]triazolo[1,5-a]azepin-7-amine 2,2,2-trifluoroacetate]: the Ki on BRD4 BD2 protein is 38.6 nM and 27.9 nM; at BRD4 BD1 protein, 1780 nM and 693 nM. In test [1], this compound had an IC50 of 187 nM.
In the case of `COc1cccc(NC2CCn3nnc(C)c3-c3ccc(C4=CCN(C(C)C)CC4)cc32)c1` (stereo not shown) [BH37, 9-(1-isopropyl-1,2,3,6-tetrahydropyridin-4-yl)-N-(3-methoxyphenyl)-1-methyl-6,7-dihydro-5H-benzo[c][1,2,3]triazolo[1,5-a]azepin-7-amine 2,2,2-trifluoroacetate], the Ki on BRD4 BD2 protein was 61.9 nM and 28.3 nM; on BRD4 BD1 protein, 1880 nM and 1560 nM. Inhibition in test [1] was half-maximal at 352 nM (IC50).
As for `COc1ccc(NC2CCc3onc(C)c3-c3ccc(OC)cc32)cc1` (stereo not shown) [FA01, 8-methoxy-N-(4-methoxyphenyl)-1-methyl-5,6-dihydro-4H-benzo[6,7]cyclohepta[1,2-d]isoxazol-6-amine], the Ki was 105 nM at BRD4 BD2 protein and 169 nM on BRD4 BD1 protein. This compound gave an IC50 in test [1] of 559 nM.
`COc1ccc2c(c1)C(Nc1ccccc1)CCc1onc(C)c1-2` (stereo not shown) [FA03, 8-methoxy-1-methyl-N-phenyl-5,6-dihydro-4H-benzo[6,7]cyclohepta[1,2-d]isoxazol-6-amine]: the figures for the Ki at BRD4 BD2 protein and at BRD4 BD1 protein were 56.3 nM and 206 nM, respectively. In test [1], this compound yielded an IC50 of 502 nM.
`COc1ccc2c(c1)C(Nc1ccc(C(F)(F)F)cc1)CCc1onc(C)c1-2` (stereo not shown) [FA05, 8-methoxy-1-methyl-N-(4-(trifluoromethyl)phenyl)-5,6-dihydro-4H-benzo[6,7]cyclohepta[1,2-d]isoxazol-6-amine]: the values for the inhibition constant Ki at BRD4 BD2 protein and on BRD4 BD1 protein were 138 nM and 204 nM, respectively. For the same compound, it took 25.2 nM to reach half-maximal inhibition in test [1] (IC50).
`Cc1noc2c1-c1ccc(-c3cnn(C)c3)cc1C(Nc1ccc(Cl)cc1)CC2` (stereo not shown) [LA55, N-(4-chlorophenyl)-1-methyl-8-(1-methyl-1H-pyrazol-4-yl)-5,6-dihydro-4H-benzo[6,7]cyclohepta[1,2-d]isoxazol-6-amine]: the Ki on BRD4 BD2 protein is 25.5 nM; at BRD4 BD1 protein, 53.7 nM. In test [1], this compound displayed an IC50 of 26.5 nM.
For the compound `Cc1noc2c1-c1ccc(-c3cn[nH]c3)cc1C(Nc1ccc(Cl)cc1)CC2` (stereo not shown) [LA108, N-(4-chlorophenyl)-1-methyl-8-(1H-pyrazol-4-yl)-5,6-dihydro-4H-benzo[6,7]cyclohepta[1,2-d]isoxazol-6-amine], the Ki on BRD4 BD2 protein is 31.7 nM; at BRD4 BD1 protein, 80.5 nM. The compound also registered an IC50 in test [1] of 30.2 nM.
For `Cc1nnn2c1-c1ccc(-c3cnn(C)c3)cc1C(Nc1ccccc1CCO)CC2` (stereo not shown) [LA198, 2-(2-((1-methyl-9-(1-methyl-1H-pyrazol-4-yl)-6,7-dihydro-5H-benzo[c][1,2,3]triazolo[1,5-a]azepin-7-yl)amino)phenyl)ethan-1-ol], the Ki is 21.4 nM at BRD4 BD2 protein and 44 nM at BRD4 BD1 protein. Further, the midpoint of inhibition in test [1], the IC50, lay at 22.9 nM.
On to `Cc1nnn2c1-c1ccc(-c3cnn(C)c3)cc1C(Nc1ccc(N(C)C)cc1)CC2` (stereo not shown) [LB17, N^1,N^1-dimethyl-N^4-(1-methyl-9-(1-methyl-1H-pyrazol-4-yl)-6,7-dihydro-5H-benzo[c][1,2,3]triazolo[1,5-a]azepin-7-yl)benzene-1,4-diamine], for which the Ki was 44 nM at BRD4 BD2 protein and 236 nM at BRD4 BD1 protein. In test [1], half-maximal inhibition (IC50) was put at 119 nM.
For the compound `Cc1nnn2c1-c1ccc(-c3cnn(C)c3)cc1C(Nc1cccc(CCO)c1)CC2` (stereo not shown) [LB71, 2-(3-((1-methyl-9-(1-methyl-1H-pyrazol-4-yl)-6,7-dihydro-5H-benzo[c][1,2,3]triazolo[1,5-a]azepin-7-yl)amino)phenyl)ethanol], the midpoint of inhibition in test [1], the IC50, lay at 151 nM.

Values taken from US12286435B2, “Compound having benzo seven-membered ring structure, preparation method therefor, and use thereof” (BIONNA (BEIJING) MEDICAL TECHNOLOGY CO., LTD., priority 2019, dated 2025).
